Data as given in article PMC7481290, “Halogenation as a tool to tune antimicrobial activity of peptoids” (Scientific Reports, 2020).
≈ marks a conversion by molar mass, not a printed value. Non-standard residues stand in square brackets, D forms with d. Residues, ends and D or L forms follow the SMILES beside them. Gly(Nα-4-Cl-benzyl) = O=C(O)CNCc1ccc(Cl)cc1; NBzl(4-I)Gly = O=C(O)CNCc1ccc(I)cc1; Nphe = O=C(O)CNCc1ccccc1; Nlys = NCCCCNCC(=O)O

Tests used:
[1] = test system: Methicillin-resistant S. aureus USA 300; format: cell-based, Staphylococcus aureus; details: USA 300, 18 h
Method: (§1) Bacterial growth inhibition was determined by using broth microdilution according to the Clinical Laboratory Standards Institute[43]. The antibacterial activity of peptoids was tested against S. aureus ATCC 25923, ATCC29213, and methicillin resistant S. aureus USA 300, methicillin resistant S. epidermidis ATCC 51625, a biofilm producing methicillin resistant S. epidermidis ET-024[44], P. aeruginosa Pa01 (H103), and E. coli ATCC 25922. Bacteria, grown on agar plates for 18 h at 37 °C, were diluted to ∼1 × 10^8 CFU/mL in Mueller‐Hinton Broth II (MHB II). Twofold serial dilutions of peptoids in MHB II were inoculated with bacteria to achieve a final concentration of 5 × 10^5 CFU/mL in polypropylene 96 U‐well microtiter plates (Corning 3,897; ThermoFisher Scientific, Roskilde), followed by incubation at 37 °C in ambient air for 18 h. The MIC values were determined as the lowest concentration showing no visible bacterial growth. Experiments were performed twice (in technical triplicates) on 2 different days.

S. aureus ATCC 25923 = format: cell-based, Staphylococcus aureus; details: for Minimal inhibitory concentration SA^a: ATCC 25923, 18 h
Method: as §1

S. aureus ATCC 29213 = format: cell-based, Staphylococcus aureus; details: ATCC 29213, 18 h
Method: as §1

[2] = test system: Methicillin-resistant S. epidermidis ATCC 51625; format: cell-based, Staphylococcus epidermidis; details: for Minimal inhibitory concentration MRSE^e: ATCC 51625, 18 h; for MIC against MRSE: text b15, strain not named
Method: as §1

[3] = test system: Methicillin-resistant S. epidermidis ET-024; format: cell-based, Staphylococcus epidermidis; details: for Minimal inhibitory concentration MRSE^d: Methicillin-resistant ET-024, 18 h
Method: as §1

E. coli ATCC 25922 = format: cell-based, Escherichia coli; details: ATCC 25922, 18 h
Method: as §1

[4] = test system: P. aeruginosa PA01 (H103); format: cell-based, Pseudomonas aeruginosa; details: H103, 18 h
Method: as §1

[5] = Critical aggregation concentration from SAXS fit analysis; format: physicochemical
Method: SAXS experiments of the 10-mer peptoids were performed at the automated BM29 bioSAXS beamline at the European Synchrotron Radiation Facility (ESRF) in Grenoble, France[45]. The data was obtained using an energy of 12.5 keV and a detector distance of 2.87 m, covering a q range ( q=4πsin(θ/2)/λ ), where θ is the scattering angle and λ is the X-ray wavelength) of about 0.0047 to 0.5 Å^−1. The data set was calibrated to an absolute intensity scale using water as a primary standard. 40 µL samples were run through a capillary using the flow mode of the automated sample changer. SAXS data was collected in ten successive frames of 0.5 s each to monitor radiation damage and the data reduction was done using the standard tool at BM29[47].
The SAXS experiments on the fully iodinated 6-, 8-, and 12-mers to determine the CAC of the compounds were performed using a Bruker NANOSTAR equipped with a microfocus X-ray source (IμS Cu, Incoatec, Germany) and a VÅNTEC-2000 detector. Raw scattering data was calibrated to absolute intensity scale using water as a primary standard and radially averaged in order to obtain the 1D scattered intensity profile as a function of the scattering vector, with a wavelength of 1.54 Å.
The modelling fit analysis of the scattering data is explained in detail in the supplementary information.

[6] = test system: selected bacterial strains (S. aureus, S. epidermidis, E. coli, P. aeruginosa); format: cell-based
Method: All 36 peptoids were tested against seven bacterial strains: five Gram-positive (Staphylococcus aureus ATCC 25923 and ATCC 29213, methicillin-resistant Staphylococcus aureus USA 300, methicillin-resistant Staphylococcus epidermidis ET-024 and ATCC 51625) and two Gram-negative (Escherichia coli ATCC 25922, Pseudomonas aeruginosa PA01) (Table 1).
as §1

NCCCCNCC(=O)N(CC(=O)N(CCCCN)CC(=O)N(CC(=O)N(CCCCN)CC(=O)N(CC(=O)N(CCCCN)CC(=O)N(CC(=O)N(CCCCN)CC(=O)N(CC(N)=O)Cc1ccc(Cl)cc1)Cc1ccccc1)Cc1ccc(Cl)cc1)Cc1ccccc1)Cc1ccc(Cl)cc1 [Compound 25] (H-[Nlys][Gly(Nα-4-Cl-benzyl)][Nlys][Nphe][Nlys][Gly(Nα-4-Cl-benzyl)][Nlys][Nphe][Nlys][Gly(Nα-4-Cl-benzyl)]-NH2)
Minimal inhibitory concentration MRSA^c [1]: 16 µg/mL (≈ 10.7 µM)
Minimal inhibitory concentration SA^a (S. aureus ATCC 25923): 8 µg/mL (≈ 5.34 µM)
Minimal inhibitory concentration SA^b (S. aureus ATCC 29213): 8 µg/mL (≈ 5.34 µM)
Minimal inhibitory concentration MRSE^e [2]: 1 µg/mL (≈ 0.668 µM)
Minimal inhibitory concentration MRSE^d [3]: 2 µg/mL (≈ 1.34 µM)
Minimal inhibitory concentration EC^f (E. coli ATCC 25922): 256 µg/mL (≈ 171 µM)
Minimal inhibitory concentration PA^g [4]: 512 µg/mL (≈ 342 µM)
critical aggregation concentration (CAC) [5]: > 5 mg/mL

NCCCCNCC(=O)N(CC(=O)N(CCCCN)CC(=O)N(CC(=O)N(CCCCN)CC(=O)N(CC(N)=O)Cc1ccc(I)cc1)Cc1ccc(I)cc1)Cc1ccc(I)cc1 [Compound 5] (H-[Nlys][NBzl(4-I)Gly][Nlys][NBzl(4-I)Gly][Nlys][NBzl(4-I)Gly]-NH2)
Minimal inhibitory concentration MRSA^c [1]: 4 µg/mL (≈ 3.28 µM)
Minimal inhibitory concentration SA^a (S. aureus ATCC 25923): 8 µg/mL (≈ 6.55 µM)
fold increase of activity against S. aureus (S. aureus ATCC 25923; versus non-halogenated control of same length): > 64 fold
Minimal inhibitory concentration SA^b (S. aureus ATCC 29213): 4 µg/mL (≈ 3.28 µM)
MIC against MRSE ([2]; values match ATCC 51625): 2 µg/mL (≈ 1.64 µM)
fold increase of activity against MRSE ([2]; versus non-halogenated control 1, values match ATCC 51625): 256 fold
Minimal inhibitory concentration MRSE^d [3]: 4 µg/mL (≈ 3.28 µM)
Minimal inhibitory concentration EC^f (E. coli ATCC 25922): 64 µg/mL (≈ 52.4 µM)
Minimal inhibitory concentration PA^g [4]: > 512 µg/mL
critical aggregation concentration (CAC) [5]: 2.8 mg/mL

NCCCCNCC(=O)N(CC(=O)N(CCCCN)CC(=O)N(CC(=O)N(CCCCN)CC(=O)N(CC(N)=O)Cc1ccccc1)Cc1ccccc1)Cc1ccccc1 [Compound 1] (H-[Nlys][Nphe][Nlys][Nphe][Nlys][Nphe]-NH2)
Minimal inhibitory concentration MRSA^c [1]: > 512 µg/mL
Minimal inhibitory concentration SA^a (S. aureus ATCC 25923): > 512 µg/mL
Minimal inhibitory concentration SA^b (S. aureus ATCC 29213): > 512 µg/mL
MIC against MRSE ([2]; values match ATCC 51625): 512 µg/mL (≈ 607 µM)
Minimal inhibitory concentration MRSE^d [3]: 512 µg/mL (≈ 607 µM)
Minimal inhibitory concentration EC^f (E. coli ATCC 25922): > 512 µg/mL
Minimal inhibitory concentration PA^g [4]: > 512 µg/mL
antimicrobial potency against the selected bacterial strains, in words [6]: inactive

NCCCCNCC(=O)N(CC(=O)N(CCCCN)CC(=O)N(CC(=O)N(CCCCN)CC(=O)N(CC(=O)N(CCCCN)CC(=O)N(CC(N)=O)Cc1ccc(I)cc1)Cc1ccc(I)cc1)Cc1ccc(I)cc1)Cc1ccc(I)cc1 [Compound 14] (H-[Nlys][NBzl(4-I)Gly][Nlys][NBzl(4-I)Gly][Nlys][NBzl(4-I)Gly][Nlys][NBzl(4-I)Gly]-NH2)
Minimal inhibitory concentration MRSA^c [1]: 4 µg/mL (≈ 2.47 µM)
Minimal inhibitory concentration SA^a (S. aureus ATCC 25923): 8 µg/mL (≈ 4.93 µM)
Minimal inhibitory concentration SA^b (S. aureus ATCC 29213): 16 µg/mL (≈ 9.86 µM)
Minimal inhibitory concentration MRSE^e [2]: 4 µg/mL (≈ 2.47 µM)
Minimal inhibitory concentration MRSE^d [3]: 2 µg/mL (≈ 1.23 µM)
fold increase of activity against MRSE ([3]; versus non-halogenated control of same length, values match ET-024): 128 fold
Minimal inhibitory concentration EC^f (E. coli ATCC 25922): 64 µg/mL (≈ 39.5 µM)
Minimal inhibitory concentration PA^g [4]: > 512 µg/mL
critical aggregation concentration (CAC) [5]: 1.4 mg/mL
